Data taken from US20250090699A1, “FAP TARGETING CYCLIC PEPTIDES AND CONJUGATES THEREOF” (Novartis AG, priority 2023, published 2025).
Counter-ions that a name gives are not always drawn. Starred links: 1 amine or outer side, 2 acyl side, 3 side chain; linkers in the order of their positions; H or OH if unused. Non-standard residues stand in square brackets, D forms with d. Residues, ends and D or L forms follow the SMILES beside them. Groups on a side chain read outwards from the residue. *: point of attachment. DOTA = O=C(O)CN1CCN(CC(=O)O)CCN(CC(=O)*)CCN(CC(=O)O)CC1; NODAGA = O=C(O)CN1CCN(CC(=O)O)CCN(C(CCC(=O)*)C(=O)O)CC1; Phe(4-CH2NH2) = NCc1ccc(C[C@H](N)C(=O)O)cc1; Piperazinyl(4-CH2COOH) = O=C(O)CN1CCN(*)CC1; AEF = NCCOc1ccc(C[C@H](N)C(=O)O)cc1; NMeF = CN[C@@H](Cc1ccccc1)C(=O)O; Ahp(2) = CCCCC[C@H](N)C(=O)O; hSer = N[C@@H](CCO)C(=O)O; Orn = NCCC[C@H](N)C(=O)O; AEEA = NCCOCCOCC(=O)O; CO = O=C([*:1])[*:2]; Propyl = CCC*

Assays:
human FAP = biological target: T1, human FAP (Homo sapiens, UniProt Q12884); assay: Enzymatic FAP competition assay (Z-Gly-Pro-AMC fluorescence), human FAP; format: biochemical; conditions: read-out: h. FAP, Enz., IC50
T1 construct: the biotinylated His, Avi tag, human FAP (26-760, FAP-H82Q6); His; Avi tag (biotinylated); purchased AcroBiosystems FAP-H82Q6
T1 sequence (Q12884 26-760): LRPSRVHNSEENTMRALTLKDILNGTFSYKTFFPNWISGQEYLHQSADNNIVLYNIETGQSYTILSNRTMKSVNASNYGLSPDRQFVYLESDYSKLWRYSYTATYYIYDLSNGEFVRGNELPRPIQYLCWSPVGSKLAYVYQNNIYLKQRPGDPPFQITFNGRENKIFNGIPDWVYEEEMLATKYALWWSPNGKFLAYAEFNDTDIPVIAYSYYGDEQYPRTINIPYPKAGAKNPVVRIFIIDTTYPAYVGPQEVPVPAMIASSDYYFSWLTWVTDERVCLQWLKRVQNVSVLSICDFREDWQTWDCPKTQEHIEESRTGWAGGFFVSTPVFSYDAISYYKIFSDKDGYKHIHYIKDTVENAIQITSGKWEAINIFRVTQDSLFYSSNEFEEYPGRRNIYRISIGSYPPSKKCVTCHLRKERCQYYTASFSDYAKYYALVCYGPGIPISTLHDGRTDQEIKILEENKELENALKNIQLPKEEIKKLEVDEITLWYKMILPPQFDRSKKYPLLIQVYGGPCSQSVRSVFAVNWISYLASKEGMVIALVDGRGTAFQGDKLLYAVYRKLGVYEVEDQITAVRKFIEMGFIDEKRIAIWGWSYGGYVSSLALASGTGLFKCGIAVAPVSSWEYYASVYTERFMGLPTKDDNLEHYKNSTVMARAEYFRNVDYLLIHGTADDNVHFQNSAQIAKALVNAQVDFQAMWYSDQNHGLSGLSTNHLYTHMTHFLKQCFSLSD
Protocol: (§1) Peptide potencies (IC50) to inhibit the FAP enzymatic activity were determined using a fluorescence-based assay towards the biotinylated His, Avi tag, human FAP (26-760, FAP-H82Q6) and the biotinylated His, Avi tag, mouse FAP (26-761, FAP-M82Q5). Standard assay conditions consisted of 20 μL total volume in white 384-well plates (Greiner, Ref. 784075), in 50 mM phosphate buffer pH 7.5 containing 150 mM NaCl, 0.05% Tween20 and 1% final DMSO. Tested peptides at 14 different concentrations up to 1 μM were added to 0.01 nM human or mouse FAP. The peptides were incubated for 24 hours together with the protein before adding the substrate 50 μM Z-Gly-Pro-AMC (I-1145 from Bachem). Samples were then incubated at 22-24° C. for 4 h before reading the fluorescence at excitation wavelength of 380 nm and emission wavelength of 460 nm using the Tecan Infinite® M1000 PRO. The high control (100% activity) was not containing any peptide, and an internal potent peptide was added at 10 μM concentration for the low control (100% inhibition). IC50 values were calculated by curve fitting using an in-house developed software (Novartis Helios software application) using the method described by Fomenko et al., 2006 (regression algorithms for nonlinear dose-response curve fitting). Following normalization of activity values for the wells to % inhibition (% inhibition=[(high control-sample)/(high control-low control)]x 100). IC50 fitting was carried out from the duplicated points.

mouse FAP [1] = biological target: T2, mouse FAP (Mus musculus, UniProt P97321); assay: Surface plasmon resonance (SPR) for peptide affinity, mouse FAP; format: binding
T2 construct: biotinylated His, Avi tag, mouse FAP (26-761, FAP-M82Q5); His; Avi tag (biotinylated); purchased AcroBiosystems FAP-M82Q5
T2 sequence (P97321 26-761): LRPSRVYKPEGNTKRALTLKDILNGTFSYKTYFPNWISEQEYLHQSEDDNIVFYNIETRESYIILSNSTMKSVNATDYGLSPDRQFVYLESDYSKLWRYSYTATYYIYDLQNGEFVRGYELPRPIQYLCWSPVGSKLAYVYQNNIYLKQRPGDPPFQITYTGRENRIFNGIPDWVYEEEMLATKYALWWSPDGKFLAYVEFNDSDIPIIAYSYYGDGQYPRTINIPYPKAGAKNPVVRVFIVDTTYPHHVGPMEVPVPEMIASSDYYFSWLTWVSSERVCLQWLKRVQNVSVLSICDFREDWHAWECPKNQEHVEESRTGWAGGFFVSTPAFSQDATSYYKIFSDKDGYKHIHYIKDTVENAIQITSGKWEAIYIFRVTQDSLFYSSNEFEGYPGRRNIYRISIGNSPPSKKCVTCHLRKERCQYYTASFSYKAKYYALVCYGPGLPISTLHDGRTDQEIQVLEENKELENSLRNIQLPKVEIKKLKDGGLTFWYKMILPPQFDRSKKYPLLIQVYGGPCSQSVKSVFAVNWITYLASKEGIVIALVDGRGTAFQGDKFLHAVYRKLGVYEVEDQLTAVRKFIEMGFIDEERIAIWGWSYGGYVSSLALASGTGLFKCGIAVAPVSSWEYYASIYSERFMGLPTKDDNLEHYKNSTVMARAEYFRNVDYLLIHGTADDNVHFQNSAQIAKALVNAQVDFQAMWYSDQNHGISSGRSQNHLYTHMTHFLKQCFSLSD
Protocol: Peptide affinities (KD) were determined by SPR using a Biacore™ 8K device (Cytiva) towards the following proteins: biotinylated His, Avi tag, human FAP (26-760, FAP-H82Q6), biotinylated His, Avi tag, mouse FAP (26-761, FAP-M82Q5), His tag, human DPP4 (34-766, DP4-H82E3), all purchased from AcroBiosystems and His tag, mouse DPP4 (29-760, 954-SE) from R&D Systems. The FAP proteins and their homologous were diluted to a concentration of 2 μg/mL into acetate buffer pH 5.5, then immobilized onto a CM5 sensorchip (Cytiva, BR-1005-30) to reach a response around 2000 R U. The running buffer HBS-EP+pH 7.6 (20× from Teknova CAT. No: H8022) contained 10 mM HEPES pH 7.6, 150 mM NaCl, 3 mM EDTA, 0.05% Tween20 and 2% DMSO. Experiments were carried out at 25° C. using a flow rate of 30 μL/min. Compounds were tested in single cycle kinetic mode at 8 different concentrations. Curve fitting was performed using the Biacore™ 8K evaluation software. The sensorgrams were fitted by applying a 1:1 binding model to calculate kinetic rate constants and equilibrium dissociation constants (KD).
For this assay, the setup had the same conditions (flow rate, running buffer, peptide dilution) as described above for the CM5 method. The oligo CAP reagent obtained in the CAPture Kit (Ref. 28920234) was 1/5 diluted into running buffer and used with a contact time of 300 s at a flow rate of 2 μL/min. The human and mouse FAP constructs described above were used (from AcroBiosystems or produced in house). The FAP proteins were diluted to a concentration of 2 μg/mL into acetate pH 5.5, 0.05% Tween20 and used with a contact time of 600 s at a flow rate of 10 μL/min. The peptides were tested with an association time of 280 s followed by a dissociation time of 3000 s at a flow rate of 30 μL/min. The regeneration was done using the regeneration solution (8 M guanidine-HCl, 1 M NaOH) as obtained with a contact time of 270 s at a flow rate of 10 μL/min. […] The compounds marked with an asterisk were tested against human and mouse DDP4.

mouse FAP [2] = biological target: T2, mouse FAP; assay: Enzymatic FAP competition assay (Z-Gly-Pro-AMC fluorescence), mouse FAP; format: biochemical; conditions: read-out: m. FAP, Enz., IC50
Protocol: as §1

IC50 (human FAP) [nM]	Kd (mouse FAP [1]) [nM]	IC50 (mouse FAP [2]) [nM]	SMILES
0.025	0.093	0.091	CCCCC[C@@H]1NC(=O)[C@H](Cc2ccc(OCCNC(=O)CN3CCN(CC(=O)O)CCN(CC(=O)O)CCN(CC(=O)O)CC3)cc2)NC(=O)[C@H](Cc2ccccc2)N(C)C(=O)CNC(=O)CNC(=O)[C@H]2CCCN2C(=O)[C@H](CC(=O)O)NC(=O)[C@H](CCCCNC(=O)N2CCN(CC(=O)O)CC2)NC(=O)CNC(=O)[C@H](Cc2c[nH]c3ccccc23)NC1=O [Example B3, Gly-Gly-NMePhe-F(4OEtNHDOTA)-Ahp-Trp-Gly-K(COpipzaa)-Asp-D-Pro] (cyclo([AEF](DOTA)[Ahp(2)]WGK([CO-Piperazinyl(4-CH2COOH)])D[dP]GG[NMeF]))
0.015	< 0.034	0.039	CCCOCC[C@@H]1NC(=O)[C@H](Cc2ccc(CNC(=O)COCCOCCNC(=O)CCC(C(=O)O)N3CCN(CC(=O)O)CCN(CC(=O)O)CC3)cc2)NC(=O)[C@H](Cc2ccccc2)N(C)C(=O)CNC(=O)CNC(=O)[C@H]2CCCN2C(=O)[C@H](CC(=O)O)NC(=O)[C@H](CCCCNC(=O)N2CCN(CC(=O)O)CC2)NC(=O)CNC(=O)[C@H](Cc2c[nH]c3ccccc23)NC1=O (stereo partly drawn) [Example B33, Gly-Gly-NMePhe-F(4amPEG2NHNODAGA)-hS(pr)-Trp-Gly-K(COpipzaa)-Asp-D-Pro] (cyclo(D[dP]GG[NMeF][Phe(4-CH2NH2)]([AEEA-NODAGA])[hSer](Propyl)WGK([CO-Piperazinyl(4-CH2COOH)])))
0.203	0.47	0.57	CCCCC[C@@H]1NC(=O)[C@H](Cc2ccc(O)cc2)NC(=O)[C@H](Cc2ccccc2)N(C)C(=O)CNC(=O)CNC(=O)[C@H]2CCCN2C(=O)[C@H](CC(=O)O)NC(=O)[C@H](CCCNC(=O)N2CCN(CC(=O)O)CC2)NC(=O)CNC(=O)[C@H](Cc2c[nH]c3ccccc23)NC1=O [Example A4, Gly-Gly-NMePhe-Tyr-Ahp-Trp-Gly-Orn(COPipzaa)-Asp-D-Pro, TFA salt] (cyclo([Ahp(2)]WG[Orn]([CO-Piperazinyl(4-CH2COOH)])D[dP]GG[NMeF]Y))

SMILES	IC50 (human FAP) [nM]	Kd (mouse FAP [1]) [nM]	IC50 (mouse FAP [2]) [nM]
CCCCC[C@@H]1NC(=O)[C@H](Cc2ccc(CNC(=O)COCCOCCNC(=O)CN3CCN(CC(=O)O)CCN(CC(=O)O)CCN(CC(=O)O)CC3)cc2)NC(=O)[C@H](Cc2ccccc2)N(C)C(=O)CNC(=O)CNC(=O)[C@H]2CCCN2C(=O)[C@H](CC(=O)O)NC(=O)[C@H](Cc2ccc(O)cc2)NC(=O)CNC(=O)[C@H](Cc2c[nH]c3ccccc23)NC1=O [Example B16, Gly-Gly-NMePhe-F(4amPEG2NHDOTA)-Ahp-Trp-Gly-Tyr-Asp-D-Pro, TFA salt] (cyclo([Ahp(2)]WGYD[dP]GG[NMeF][Phe(4-CH2NH2)]([AEEA-DOTA])))	0.009	0.01	0.03
